Consider five compounds from patent publication US9809623B2, “α4β7 peptide monomer and dimer antagonists” (Protagonist Therapeutics, Inc., priority 2014, dated 2017).

Assay [1] has as its target α4β7 (Homo sapiens, UniProt P13612+P26010). Description: PBMC Memory T Cell Adhesion Assay, adhesion to MAdCAM-1. The note with it: Table 4-B; read-out: Cell Adhesion PBMC IC50. Format: cell-based. The procedure, abridged:
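Fresh human CD4+/CD45RO+ memory T cells in binding medium with 1 mM MnCl2 were preincubated with compound for 1.5 h at 37° C. on plates coated with Fc-captured MAdCAM-1 (400 ng/well). Adherent cells were read by fluorescence (Ex 485/Em 530). IC50 came from four-parameter nonlinear regression of RFU versus log concentration.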

Assay [2] deals with T1, α4β7 (Mus musculus, UniProt P26011+Q00651).
T1 construct: host or cells: TK1 mouse T cells
Description: α4β7 Cell Adhesion Assay (Mouse), TK1 cells. The note with it: Table 4-B; read-out: Cell Adhesion α4β7 Mouse IC50. Format: cell-based. The procedure, abridged: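 Mouse TK1 cells in DMEM with 0.1% BSA, 10 mM HEPES pH 7 and 1 mM MnCl2 were allowed to adhere for 30-45 min at 37 °C to plates coated with recombinant human MAdCAM-1 Fc (200 ng/well) in the presence of serially diluted peptides. Adherent cells were quantified by MTT absorbance at 570 nm, with no-cell background subtracted for dose response.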

Each structure is given as a SMILES string. Numbered stars: 1 amine (or outer) side, 2 acyl side, 3 side chain; on linkers, the order of the positions; unused ones are H or OH. Bridge positions count the residues as written; N and C are the ends. Square brackets hold non-standard residues; d marks the D form. Peptide text beside a SMILES is read from it. I, II: the chains in the order shown. Phe(4-tBu) = CC(C)(C)c1ccc(C[C@H](N)C(=O)O)cc1; Diglycolyl = O=C(COCC(=O)[*:2])[*:1]; NMeR = CN[C@@H](CCCNC(=N)N)C(=O)O; β3hE = N[C@@H](CCC(=O)O)CC(=O)O; NMeK = CN[C@@H](CCCCN)C(=O)O; Pen = CC(C)(S)[C@H](N)C(=O)O; dNMeK = CN[C@H](CCCCN)C(=O)O

Chain of α4β7 (Homo sapiens, UniProt P13612+P26010) (P13612 34-1032): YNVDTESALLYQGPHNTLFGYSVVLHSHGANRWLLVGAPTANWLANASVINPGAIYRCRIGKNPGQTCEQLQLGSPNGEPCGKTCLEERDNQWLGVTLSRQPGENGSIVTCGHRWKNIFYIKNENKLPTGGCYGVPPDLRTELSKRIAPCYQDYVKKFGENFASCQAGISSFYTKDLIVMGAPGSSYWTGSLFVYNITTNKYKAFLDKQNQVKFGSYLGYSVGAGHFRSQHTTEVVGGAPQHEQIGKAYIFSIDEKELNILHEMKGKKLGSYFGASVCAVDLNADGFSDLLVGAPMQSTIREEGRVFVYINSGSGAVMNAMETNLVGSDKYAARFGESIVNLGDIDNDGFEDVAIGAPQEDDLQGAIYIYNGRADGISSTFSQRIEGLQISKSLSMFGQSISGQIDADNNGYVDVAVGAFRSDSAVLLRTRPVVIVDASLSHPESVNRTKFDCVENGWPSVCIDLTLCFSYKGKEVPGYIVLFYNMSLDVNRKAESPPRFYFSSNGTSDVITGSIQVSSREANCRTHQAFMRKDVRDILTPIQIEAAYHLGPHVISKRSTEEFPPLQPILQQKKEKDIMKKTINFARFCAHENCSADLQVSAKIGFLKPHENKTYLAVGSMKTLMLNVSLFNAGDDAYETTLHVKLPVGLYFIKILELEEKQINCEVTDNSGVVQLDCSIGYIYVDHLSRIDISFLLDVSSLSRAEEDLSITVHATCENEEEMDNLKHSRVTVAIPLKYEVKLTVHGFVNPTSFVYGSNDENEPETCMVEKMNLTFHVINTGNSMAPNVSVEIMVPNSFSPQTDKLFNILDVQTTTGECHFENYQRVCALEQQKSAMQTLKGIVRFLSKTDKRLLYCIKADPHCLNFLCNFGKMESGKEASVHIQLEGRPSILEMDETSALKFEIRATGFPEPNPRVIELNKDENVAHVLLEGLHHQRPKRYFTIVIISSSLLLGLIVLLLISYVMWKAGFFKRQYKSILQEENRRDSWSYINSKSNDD
Chain of α4β7 (Homo sapiens, UniProt P13612+P26010) (P26010 20-798): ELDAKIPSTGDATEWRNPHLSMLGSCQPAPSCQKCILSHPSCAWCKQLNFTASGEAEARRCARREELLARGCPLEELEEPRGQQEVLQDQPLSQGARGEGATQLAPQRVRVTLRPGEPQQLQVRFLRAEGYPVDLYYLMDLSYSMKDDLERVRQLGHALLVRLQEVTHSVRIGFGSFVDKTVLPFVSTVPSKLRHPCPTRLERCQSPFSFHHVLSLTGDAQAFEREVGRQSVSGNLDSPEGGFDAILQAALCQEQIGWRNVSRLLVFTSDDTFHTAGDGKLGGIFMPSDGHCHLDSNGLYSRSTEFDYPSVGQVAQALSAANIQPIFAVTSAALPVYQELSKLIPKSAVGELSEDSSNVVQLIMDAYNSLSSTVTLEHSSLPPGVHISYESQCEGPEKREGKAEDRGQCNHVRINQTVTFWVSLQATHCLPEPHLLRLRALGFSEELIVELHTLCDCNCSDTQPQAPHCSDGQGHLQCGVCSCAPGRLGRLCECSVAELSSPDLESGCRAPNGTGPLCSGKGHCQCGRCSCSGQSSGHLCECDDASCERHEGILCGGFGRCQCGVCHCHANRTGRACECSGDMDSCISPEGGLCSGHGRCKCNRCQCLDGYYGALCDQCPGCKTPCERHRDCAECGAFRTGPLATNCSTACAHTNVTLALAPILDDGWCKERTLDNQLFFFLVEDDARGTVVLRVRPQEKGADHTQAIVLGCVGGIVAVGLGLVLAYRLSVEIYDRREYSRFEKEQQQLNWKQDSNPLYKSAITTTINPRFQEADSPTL
T1 sequence (Q00651 34-1039 limits assumed): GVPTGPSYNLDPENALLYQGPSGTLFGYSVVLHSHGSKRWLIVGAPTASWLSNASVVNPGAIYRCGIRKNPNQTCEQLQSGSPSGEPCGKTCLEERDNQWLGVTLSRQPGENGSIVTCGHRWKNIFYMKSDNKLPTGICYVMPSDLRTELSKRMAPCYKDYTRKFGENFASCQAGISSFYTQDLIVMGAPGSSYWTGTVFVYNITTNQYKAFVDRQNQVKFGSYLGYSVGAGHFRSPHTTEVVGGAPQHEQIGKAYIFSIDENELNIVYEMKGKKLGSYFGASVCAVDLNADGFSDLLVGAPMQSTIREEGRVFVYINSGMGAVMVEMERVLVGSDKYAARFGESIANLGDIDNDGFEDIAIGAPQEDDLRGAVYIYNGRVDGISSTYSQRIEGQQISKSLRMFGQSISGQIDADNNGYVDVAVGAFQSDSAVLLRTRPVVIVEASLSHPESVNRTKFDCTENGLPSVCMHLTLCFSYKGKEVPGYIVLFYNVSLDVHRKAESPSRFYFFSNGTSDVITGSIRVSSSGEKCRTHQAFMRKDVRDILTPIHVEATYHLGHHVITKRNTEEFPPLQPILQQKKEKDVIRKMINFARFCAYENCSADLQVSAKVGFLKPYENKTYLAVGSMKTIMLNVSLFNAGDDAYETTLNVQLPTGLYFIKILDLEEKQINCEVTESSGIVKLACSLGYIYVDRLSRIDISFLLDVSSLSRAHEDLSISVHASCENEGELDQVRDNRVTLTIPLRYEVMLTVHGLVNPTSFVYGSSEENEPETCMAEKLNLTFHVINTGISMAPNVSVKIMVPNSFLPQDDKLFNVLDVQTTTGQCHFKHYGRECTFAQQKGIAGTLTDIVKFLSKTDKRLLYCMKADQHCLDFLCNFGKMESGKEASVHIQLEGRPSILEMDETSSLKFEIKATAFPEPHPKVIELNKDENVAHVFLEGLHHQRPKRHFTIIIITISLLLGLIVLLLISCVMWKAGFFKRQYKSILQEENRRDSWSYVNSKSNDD
T1 sequence (P26011 20-806): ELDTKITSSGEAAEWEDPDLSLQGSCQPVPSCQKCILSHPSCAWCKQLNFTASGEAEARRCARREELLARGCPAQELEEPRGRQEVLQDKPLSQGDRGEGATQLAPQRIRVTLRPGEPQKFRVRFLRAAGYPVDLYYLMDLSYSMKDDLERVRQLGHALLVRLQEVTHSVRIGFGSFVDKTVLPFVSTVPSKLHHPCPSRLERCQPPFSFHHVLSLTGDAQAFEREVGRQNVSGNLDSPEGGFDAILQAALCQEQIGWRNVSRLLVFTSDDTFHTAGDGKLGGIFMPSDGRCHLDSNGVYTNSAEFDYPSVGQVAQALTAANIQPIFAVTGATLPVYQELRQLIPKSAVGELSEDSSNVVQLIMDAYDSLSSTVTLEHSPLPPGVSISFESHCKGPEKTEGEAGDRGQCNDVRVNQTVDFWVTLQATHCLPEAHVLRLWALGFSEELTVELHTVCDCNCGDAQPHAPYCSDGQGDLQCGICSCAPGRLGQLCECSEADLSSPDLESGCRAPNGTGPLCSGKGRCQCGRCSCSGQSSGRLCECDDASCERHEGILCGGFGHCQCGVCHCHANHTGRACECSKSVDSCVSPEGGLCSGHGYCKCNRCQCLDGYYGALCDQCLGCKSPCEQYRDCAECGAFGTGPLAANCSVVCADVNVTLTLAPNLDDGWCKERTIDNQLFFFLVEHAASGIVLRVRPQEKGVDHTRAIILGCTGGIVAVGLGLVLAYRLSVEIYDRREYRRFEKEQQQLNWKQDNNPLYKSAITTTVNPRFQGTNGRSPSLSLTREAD

Turning to `CC(=O)N[C@@H]1C(=O)N(C)[C@@H](CCCNC(=N)N)C(=O)N[C@@H](CO)C(=O)N[C@@H](CC(=O)O)C(=O)N[C@@H]([C@@H](C)O)C(=O)N[C@@H](CC(C)C)C(=O)N[C@H](C(=O)N[C@@H](Cc2c[nH]c3ccccc23)C(=O)N[C@H](CCCCNC(=O)COCC(=O)NCCCC[C@@H](NC(=O)[C@H](Cc2c[nH]c3ccccc23)NC(=O)[C@H]2NC(=O)[C@H](CC(C)C)NC(=O)[C@H]([C@@H](C)O)NC(=O)[C@H](CC(=O)O)NC(=O)[C@H](CO)NC(=O)[C@H](CCCNC(=N)N)N(C)C(=O)[C@@H](NC(C)=O)C(C)(C)SSC2(C)C)C(N)=O)C(N)=O)C(C)(C)SSC1(C)C` [compound 209, (Ac-Pen-N-Me-R-S-D-T-L-Pen-W-k-NH2)2-DIG] (I: Ac-[Pen][NMeR]SDTL[Pen]W[dK]-NH2 / II: Ac-[Pen][NMeR]SDTL[Pen]W[dK]-NH2; disulfide I:1-I:7, II:1-II:7 (inferred); linker I:9-II:9 via Diglycolyl (inferred)), the 50% inhibitory concentration (IC50) was 260 nM in assay [1] and 51 nM in assay [2].

For `CC(=O)N[C@@H]1C(=O)N(C)[C@@H](CCCNC(=N)N)C(=O)N[C@@H](CO)C(=O)N[C@@H](CC(=O)O)C(=O)N[C@@H]([C@@H](C)O)C(=O)N[C@@H](CC(C)C)C(=O)N[C@H](C(=O)N[C@@H](Cc2c[nH]c3ccccc23)C(=O)N[C@@H](CCC(=O)O)C(=O)N(C)[C@H](CCCCNC(=O)COCC(=O)NCCCC[C@H](C(N)=O)N(C)C(=O)[C@H](CCC(=O)O)NC(=O)[C@H](Cc2c[nH]c3ccccc23)NC(=O)[C@H]2NC(=O)[C@H](CC(C)C)NC(=O)[C@H]([C@@H](C)O)NC(=O)[C@H](CC(=O)O)NC(=O)[C@H](CO)NC(=O)[C@H](CCCNC(=N)N)N(C)C(=O)[C@@H](NC(C)=O)C(C)(C)SSC2(C)C)C(N)=O)C(C)(C)SSC1(C)C` [compound 214, [Ac-Pen-(N-Me-Arg)-Ser-Asp-Thr-Leu-Pen-Trp-Glu-(N-Me-D-Lys)-NH2]2-DIG] (I: Ac-[Pen][NMeR]SDTL[Pen]WE[dNMeK]-NH2 / II: Ac-[Pen][NMeR]SDTL[Pen]WE[dNMeK]-NH2; disulfide I:1-I:7, II:1-II:7 (inferred); linker I:10-II:10 via Diglycolyl (inferred)), the values for the IC50 in assay [1] and in assay [2] were 24.5 nM and 1.1 nM, respectively.

As to `CC(=O)N[C@@H]1C(=O)N(C)[C@@H](CCCNC(=N)N)C(=O)N[C@@H](CO)C(=O)N[C@@H](CC(=O)O)C(=O)N[C@@H]([C@@H](C)O)C(=O)N[C@@H](CC(C)C)C(=O)N[C@H](C(=O)N[C@@H](Cc2c[nH]c3ccccc23)C(=O)N[C@@H](CCC(=O)O)C(=O)N(C)[C@@H](CCCCNC(=O)COCC(=O)NCCCC[C@@H](C(N)=O)N(C)C(=O)[C@H](CCC(=O)O)NC(=O)[C@H](Cc2c[nH]c3ccccc23)NC(=O)[C@H]2NC(=O)[C@H](CC(C)C)NC(=O)[C@H]([C@@H](C)O)NC(=O)[C@H](CC(=O)O)NC(=O)[C@H](CO)NC(=O)[C@H](CCCNC(=N)N)N(C)C(=O)[C@@H](NC(C)=O)C(C)(C)SSC2(C)C)C(N)=O)C(C)(C)SSC1(C)C` [compound 215, [Ac-Pen-(N-Me-Arg)-Ser-Asp-Thr-Leu-Pen-Trp-Glu-(N-Me-Lys)-NH2]2-DIG] (I: Ac-[Pen][NMeR]SDTL[Pen]WE[NMeK]-NH2 / II: Ac-[Pen][NMeR]SDTL[Pen]WE[NMeK]-NH2; disulfide I:1-I:7, II:1-II:7 (inferred); linker I:10-II:10 via Diglycolyl (inferred)), the IC50 in assay [1] is 16.5 nM; in assay [2], 0.9 nM.

In the case of `CC(=O)N[C@@H]1C(=O)N(C)[C@@H](CCCNC(=N)N)C(=O)N[C@@H](CO)C(=O)N[C@@H](CC(=O)O)C(=O)N[C@@H]([C@@H](C)O)C(=O)N[C@@H](CC(C)C)C(=O)N[C@H](C(=O)N[C@@H](Cc2c[nH]c3ccccc23)C(=O)N[C@H](CCC(=O)O)C(=O)N[C@H](CCCCNC(=O)COCC(=O)NCCCC[C@@H](NC(=O)[C@@H](CCC(=O)O)NC(=O)[C@H](Cc2c[nH]c3ccccc23)NC(=O)[C@H]2NC(=O)[C@H](CC(C)C)NC(=O)[C@H]([C@@H](C)O)NC(=O)[C@H](CC(=O)O)NC(=O)[C@H](CO)NC(=O)[C@H](CCCNC(=N)N)N(C)C(=O)[C@@H](NC(C)=O)C(C)(C)SSC2(C)C)C(=O)O)C(=O)O)C(C)(C)SSC1(C)C` [compound 216, (Ac-Pen-N-Me-R-S-D-T-L-Pen-W-e-k-OH)2-DIG] (I: Ac-[Pen][NMeR]SDTL[Pen]W[dE][dK]-OH / II: Ac-[Pen][NMeR]SDTL[Pen]W[dE][dK]-OH; disulfide I:1-I:7, II:1-II:7 (inferred); linker I:10-II:10 via Diglycolyl (inferred)), the 50% inhibitory concentration (IC50) in assay [1] is 14.5 nM; in assay [2], 1 nM.

Regarding `CC(=O)N[C@@H]1C(=O)N(C)[C@@H](CCCNC(=N)N)C(=O)N[C@@H](CO)C(=O)N[C@@H](CC(=O)O)C(=O)N[C@@H]([C@@H](C)O)C(=O)N[C@@H](CC(C)C)C(=O)N[C@H](C(=O)N[C@@H](Cc2ccc(C(C)(C)C)cc2)C(=O)N[C@@H](CCC(=O)O)CC(=O)N[C@H](CCCCNC(=O)COCC(=O)NCCCC[C@@H](NC(=O)C[C@H](CCC(=O)O)NC(=O)[C@H](Cc2ccc(C(C)(C)C)cc2)NC(=O)[C@H]2NC(=O)[C@H](CC(C)C)NC(=O)[C@H]([C@@H](C)O)NC(=O)[C@H](CC(=O)O)NC(=O)[C@H](CO)NC(=O)[C@H](CCCNC(=N)N)N(C)C(=O)[C@@H](NC(C)=O)C(C)(C)SSC2(C)C)C(N)=O)C(N)=O)C(C)(C)SSC1(C)C` [compound 218, [Ac-Pen-(N-Me-Arg)-Ser-Asp-Thr-Leu-Pen-Phe(4-tBu)-(β-homoGlu)-(D-Lys)-NH2]2-DIG] (I: Ac-[Pen][NMeR]SDTL[Pen][Phe(4-tBu)][β3hE][dK]-NH2 / II: Ac-[Pen][NMeR]SDTL[Pen][Phe(4-tBu)][β3hE][dK]-NH2; disulfide I:1-I:7, II:1-II:7; linker I:10-II:10 via Diglycolyl), the IC50 in assay [1] was determined as 2 nM; in assay [2], 0.5 nM.
